Laboratory results as given in US10111433B2 (priority 2014, dated 2018).
Read-outs that look alike come from different tables or passages of the source.

Assays:
Phytophthora capsici = assay: Activity against Phytophthora capsici, growth inhibition in nutrient broth (microtiter plate); type: cell-based
Procedure: Conidia of the fungus from cryogenic storage are directly mixed into nutrient broth (PDB potato dextrose broth). After placing a (DMSO) solution of test compound into a microtiter plate (96-well format), the nutrient broth containing the fungal spores is added. […] Table B4 to B21 gives the mean percent control relative to untreated.

Phytophthora infestans [1] = type: in vivo
Plasmopara viticola = assay: Field activity against Plasmopara viticola on grapevine; type: in vivo; settings: Table B2; Mandipropamid 93.75 gai/ha; bunches, ten days after sixth application
Description: Merlot grapevines were cultivated in rows with 1 m between plants within the row, and 2 m spaces between rows. Treatment plots were defined with an 8 m^2 vertical area. The trial consisted of three replicates of the treatment list, with the positions of each treatment plot randomised within the replicate.
Test compounds were formulated and applied to the relevant treatment plots, using a backpack sprayer with a flat fan nozzle. The first application was made when the majority of plants were at growth stage BBCH 15 and following applications at 10-14 day intervals through to growth stage BBCH 79.
The first symptoms of the target pathogen Plasmopara viticola were observed between the second and third applications. Plants outside the trial area were inoculated to increase the disease pressure, but infection processes within the trial plots were natural. […]
Ten days after the sixth application, at growth stage BBCH 79, the fruit was assessed for infection by Plasmopara viticola. 50 bunches per plot were assessed, the scores given in table B2 are percent disease control relative to untreated, based on the mean percentage of bunches showing symptoms of infection across all three replicates of a treatment.

Phytophthora infestans [2] = type: in vivo; settings: Table B3; Chlorothalonil 1000 gai/ha; leaf area, four days after final application
[3] = Table B20, Iprovalicarb 0.6250 ppm, no A-1.2 rate printed in the row

Molecule: CCNC(=O)NC(=O)/C(C#N)=N/OC [Cymoxanil]
- inhibition of growth at 0.0625 ppm (Phytophthora capsici; Phytophthora capsici, Table B13, Cymoxanil 0.0625 ppm, read-out: % disease control): 0%
- inhibition of growth at 0.125 ppm (Phytophthora capsici; Phytophthora capsici, Table B13, Cymoxanil 0.1250 ppm, read-out: % disease control): 10%
- inhibition of growth at 0.25 ppm (Phytophthora capsici; Phytophthora capsici, Table B13, Cymoxanil 0.2500 ppm, read-out: % disease control): 0%
- inhibition of growth at 0.5 ppm (Phytophthora capsici; Phytophthora capsici, Table B13, Cymoxanil 0.5000 ppm, read-out: % disease control): 11%
- inhibition of growth at 1 ppm (Phytophthora capsici; Phytophthora capsici, Table B13, Cymoxanil 1.0000 ppm, read-out: % disease control): 8%
- inhibition of growth at 2 ppm (Phytophthora capsici; Phytophthora capsici, Table B13, Cymoxanil 2.0000 ppm, read-out: % disease control): 36%

Molecule: Cc1c(Br)c2ccc(F)cc2n1S(=O)(=O)c1ncn(S(=O)(=O)N(C)C)n1 [Amisulbrom]
- % disease control (Phytophthora capsici; Table B16, Amisulbrom 0.0063 ppm): 5%
- % disease control (Phytophthora capsici; Table B16, Amisulbrom 0.0125 ppm): 6%
- % disease control (Phytophthora capsici; Table B16, Amisulbrom 0.0500 ppm): 24%
- % disease control (Phytophthora capsici; Table B16, Amisulbrom 0.1000 ppm): 35%

Molecule: CCC(C)(NC(=O)c1cc(Cl)c(C)c(Cl)c1)C(=O)CCl (stereo not shown) [Zoxamid]
- inhibition of growth at 0.0063 ppm (Phytophthora capsici; Phytophthora capsici, Table B14, Zoxamid 0.0063 ppm, read-out: % disease control): 19%
- inhibition of growth at 0.0125 ppm (Phytophthora capsici; Phytophthora capsici, Table B14, Zoxamid 0.0125 ppm, read-out: % disease control): 40%
- inhibition of growth at 0.025 ppm (Phytophthora capsici; Phytophthora capsici, Table B14, Zoxamid 0.0250 ppm, read-out: % disease control): 48%
- inhibition of growth at 0.05 ppm (Phytophthora capsici; Phytophthora capsici, Table B14, Zoxamid 0.0500 ppm, read-out: % disease control): 65%

Molecule: COCC(=O)N(c1c(C)cccc1C)[C@H](C)C(=O)OC [Mefenoxam]
- % disease control (Phytophthora capsici; Table B8, Mefenoxam 0.0031 ppm): 0%
- % disease control (Phytophthora capsici; Table B8, Mefenoxam 0.0063 ppm): 13%
- % disease control (Phytophthora capsici; Table B8, Mefenoxam 0.0125 ppm): 13%
- % disease control (Phytophthora capsici; Table B8, Mefenoxam 0.0250 ppm): 28%
- % disease control (Phytophthora capsici; Table B8, Mefenoxam 0.0500 ppm): 42%

Molecule: CSC1=N[C@@](C)(c2ccccc2)C(=O)N1Nc1ccccc1 [Fenamidone]
- inhibition of growth at 0.0031 ppm (Phytophthora capsici; Phytophthora capsici, Table B18, Fenamidone 0.0031 ppm, read-out: % disease control): 12%
- inhibition of growth at 0.0063 ppm (Phytophthora capsici; Phytophthora capsici, Table B18, Fenamidone 0.0063 ppm, read-out: % disease control): 4%
- inhibition of growth at 0.0125 ppm (Phytophthora capsici; Phytophthora capsici, Table B18, Fenamidone 0.0125 ppm, read-out: % disease control): 41%
- inhibition of growth at 0.025 ppm (Phytophthora capsici; Phytophthora capsici, Table B18, Fenamidone 0.0250 ppm, read-out: % disease control): 54%

Molecule: COc1ccc(C(=CC(=O)N2CCOCC2)c2ccc(Cl)cc2)cc1OC [Dimetomorph]
- inhibition of growth at 0.0031 ppm (Phytophthora capsici; Phytophthora capsici, Table B10, Dimetomorph 0.0031 ppm, read-out: % disease control): 0%
- inhibition of growth at 0.0063 ppm (Phytophthora capsici; Phytophthora capsici, Table B10, Dimetomorph 0.0063 ppm, read-out: % disease control): 14%
- inhibition of growth at 0.0125 ppm (Phytophthora capsici; Phytophthora capsici, Table B10, Dimetomorph 0.0125 ppm, read-out: % disease control): 0%
- inhibition of growth at 0.1 ppm (Phytophthora capsici; Phytophthora capsici, Table B10, Dimetomorph 0.1000 ppm, read-out: % disease control): 28%

Molecule: CCCCCCCCc1c(CC)nc2ncnn2c1N [Ametoctradin]
- % disease control (Phytophthora capsici; Table B17, Ametoctradin 0.0063 ppm): 8%
- % disease control (Phytophthora capsici; Table B17, Ametoctradin 0.0125 ppm): 8%
- % disease control (Phytophthora capsici; Table B17, Ametoctradin 0.0250 ppm): 13%
- % disease control (Phytophthora capsici; Table B17, Ametoctradin 0.0500 ppm): 30%

Molecule: O=C1c2ccccc2C(=O)N1SC(Cl)(Cl)Cl [Folpet]
- % disease control (Phytophthora infestans [1]; Table B1.2, Folpet 20 ppm): 0%
- % disease control (Phytophthora infestans [1]; Table B1.2, Folpet 60 ppm): 33%
- inhibition of growth at 0.0313 ppm (Phytophthora capsici; Phytophthora capsici, Table B12, Folpet 0.0313 ppm, read-out: % disease control): 17%
- inhibition of growth at 0.0625 ppm (Phytophthora capsici; Phytophthora capsici, Table B12, Folpet 0.0625 ppm, read-out: % disease control): 11%
- inhibition of growth at 0.125 ppm (Phytophthora capsici; Phytophthora capsici, Table B12, Folpet 0.1250 ppm, read-out: % disease control): 19%
- inhibition of growth at 0.25 ppm (Phytophthora capsici; Phytophthora capsici, Table B12, Folpet 0.2500 ppm, read-out: % disease control): 19%

Molecule: CCO[PH](=O)[O-].CCO[PH](=O)[O-].CCO[PH](=O)[O-].[Al+3] [Fosethyl-Al]
- % disease control (Phytophthora capsici; Table B21, Fosethyl-Al 0.3125 ppm): 8%
- % disease control (Phytophthora capsici; Table B21, Fosethyl-Al 0.6250 ppm): 14%
- % disease control (Phytophthora capsici; Table B21, Fosethyl-Al 1.2500 ppm): 14%

Molecule: O=[N+]([O-])c1cc(C(F)(F)F)c(Cl)c([N+](=O)[O-])c1Nc1ncc(C(F)(F)F)cc1Cl [Fluazinam]
- inhibition of growth at 0.0625 ppm (Phytophthora capsici; Phytophthora capsici, Table B11, Fluazinam 0.0625 ppm, read-out: % disease control): 4%
- inhibition of growth at 0.125 ppm (Phytophthora capsici; Phytophthora capsici, Table B11, Fluazinam 0.1250 ppm, read-out: % disease control): 10%
- inhibition of growth at 0.25 ppm (Phytophthora capsici; Phytophthora capsici, Table B11, Fluazinam 0.2500 ppm, read-out: % disease control): 0%
- inhibition of growth at 0.5 ppm (Phytophthora capsici; Phytophthora capsici, Table B11, Fluazinam 0.5000 ppm, read-out: % disease control): 14%

Molecule: O=C(NCc1ncc(C(F)(F)F)cc1Cl)c1c(Cl)cccc1Cl [Fluopicolid]
- % disease control (Phytophthora capsici; Table B15, Fluopicolid 0.0625 ppm): 6%
- % disease control (Phytophthora capsici; Table B15, Fluopicolid 0.1250 ppm): 59%
- % disease control (Phytophthora capsici; Table B15, Fluopicolid 0.2500 ppm): 69%
- % disease control (Phytophthora capsici; Table B15, Fluopicolid 0.5000 ppm): 79%

Molecule: C#CCOc1ccc(CCNC(=O)C(OCC#C)c2ccc(Cl)cc2)cc1OC (stereo not shown) [Mandipropamid]
- % disease control (Phytophthora infestans [1]; Table B1.1, Mandipropamid 0.06 ppm): 0%
- % disease control (Phytophthora infestans [1]; Table B1.1, Mandipropamid 0.2 ppm): 0%
- % disease control (Phytophthora infestans [1]; Table B1.1, Mandipropamid 0.6 ppm): 3%
- % disease control relative to untreated (Plasmopara viticola): 17.3%
- % disease control (Phytophthora capsici; Table B9, Mandipropamid 0.0003 ppm): 16%
- % disease control (Phytophthora capsici; Table B9, Mandipropamid 0.0006 ppm): 0%
- % disease control (Phytophthora capsici; Table B9, Mandipropamid 0.0012 ppm): 0%
- % disease control (Phytophthora capsici; Table B9, Mandipropamid 0.0025 ppm): 17%
- % disease control (Phytophthora capsici; Table B9, Mandipropamid 0.0050 ppm): 13%
- % disease control (Phytophthora capsici; Table B9, Mandipropamid 0.0100 ppm): 15%

Molecule: Mancozeb
- % disease control (Phytophthora capsici; Table B4, Mancozeb 0.3125 ppm): 3%
- % disease control (Phytophthora capsici; Table B4, Mancozeb 0.6250 ppm): 1%
- % disease control (Phytophthora capsici; Table B4, Mancozeb 1.2500 ppm): 0%
- % disease control (Phytophthora capsici; Table B4, Mancozeb 2.5000 ppm): 0%
- % disease control (Phytophthora capsici; Table B4, Mancozeb 5.0000 ppm): 1%
- % disease control (Phytophthora capsici; Table B4, Mancozeb 10.0000 ppm): 1%
- % disease control (Phytophthora capsici; Table B4, Mancozeb 20.0000 ppm): 0%

Molecule: Cc1ccc(C(C)NC(=O)[C@@H](NC(=O)OC(C)C)C(C)C)cc1 (stereo partly shown) [Iprovalicarb]
- % disease control (Phytophthora capsici; [3]): 91%
- Expected action (Colby) (Phytophthora capsici; [3]): 66%
- % disease control (Phytophthora capsici; Table B20, Iprovalicarb 1.2500 ppm): 18%
- % disease control (Phytophthora capsici; Table B20, Iprovalicarb 2.5000 ppm): 0%

Molecule: C[C@@]1(c2ccc(Oc3ccccc3)cc2)OC(=O)N(Nc2ccccc2)C1=O (racemic) [Famoxadone]
- inhibition of growth at 0.1563 ppm (Phytophthora capsici; Phytophthora capsici, Table B19, Famoxadone 0.1563 ppm, read-out: % disease control): 16%
- inhibition of growth at 0.3125 ppm (Phytophthora capsici; Phytophthora capsici, Table B19, Famoxadone 0.3125 ppm, read-out: % disease control): 16%
- inhibition of growth at 0.625 ppm (Phytophthora capsici; Phytophthora capsici, Table B19, Famoxadone 0.6250 ppm, read-out: % disease control): 16%
- inhibition of growth at 1.25 ppm (Phytophthora capsici; Phytophthora capsici, Table B19, Famoxadone 1.2500 ppm, read-out: % disease control): 16%
- inhibition of growth at 2.5 ppm (Phytophthora capsici; Phytophthora capsici, Table B19, Famoxadone 2.5000 ppm, read-out: % disease control): 16%
- inhibition of growth at 5 ppm (Phytophthora capsici; Phytophthora capsici, Table B19, Famoxadone 5.0000 ppm, read-out: % disease control): 25%

Molecule: N#Cc1sc2c(=O)c3ccccc3c(=O)c=2sc1C#N [Dithianon]
- inhibition of growth at 0.125 ppm (Phytophthora capsici; Phytophthora capsici, Table B6, Dithianon 0.1250 ppm, read-out: % disease control): 0%
- inhibition of growth at 0.25 ppm (Phytophthora capsici; Phytophthora capsici, Table B6, Dithianon 0.2500 ppm, read-out: % disease control): 7%
- inhibition of growth at 0.5 ppm (Phytophthora capsici; Phytophthora capsici, Table B6, Dithianon 0.5000 ppm, read-out: % disease control): 8%
- inhibition of growth at 1 ppm (Phytophthora capsici; Phytophthora capsici, Table B6, Dithianon 1.0000 ppm, read-out: % disease control): 25%

Molecule: CO/C=C(/C(=O)OC)c1ccccc1Oc1cc(Oc2ccccc2C#N)ncn1 [Azoxystrobin]
- % disease control (Phytophthora capsici; Table B7, Azoxystrobin 0.0313 ppm): 23%
- % disease control (Phytophthora capsici; Table B7, Azoxystrobin 0.0625 ppm): 23%
- % disease control (Phytophthora capsici; Table B7, Azoxystrobin 0.1250 ppm): 62%

Molecule: N#Cc1c(Cl)c(Cl)c(Cl)c(C#N)c1Cl [Chlorothalonil]
- % disease control (Phytophthora infestans [1]; Table B1.3, Chlorothalonil 60 ppm): 6%
- % disease control relative to untreated (Phytophthora infestans [2]): 4.3%
- inhibition of growth at 0.0781 ppm (Phytophthora capsici; Phytophthora capsici, Table B5, Chlorothalonil 0.0781 ppm, read-out: % disease control): 24%
- inhibition of growth at 0.1563 ppm (Phytophthora capsici; Phytophthora capsici, Table B5, Chlorothalonil 0.1563 ppm, read-out: % disease control): 24%
- inhibition of growth at 0.3125 ppm (Phytophthora capsici; Phytophthora capsici, Table B5, Chlorothalonil 0.3125 ppm, read-out: % disease control): 23%
- inhibition of growth at 0.625 ppm (Phytophthora capsici; Phytophthora capsici, Table B5, Chlorothalonil 0.6250 ppm, read-out: % disease control): 64%
